Assay results taken from US9139574B2, “Tumor targeted drug combretastatin A4 derivative” (Nanjing Sanhome Pharmaceutical Co., Ltd., priority 2011, dated 2015).

SMILES | melting point
COc1cc(OC)cc(-c2nc[nH]c2-c2ccc(OC)c(O)c2)c1.O=P([O-])([O-])O.[Na+].[Na+] | 169.7 to 172.1 °C
COc1cc(OC)cc(-c2ncn(-c3cc(OC)c(OC)c(OC)c3)c2-c2ccc(OC)c(F)c2)c1 [Compound C091, 5-(3-fluoro-4-methoxyphenyl)-4-(3,5-dimethoxyphenyl)-1-(3,4,5-trimethoxyphenyl)imidazole] | 157 to 158.4 °C
COc1cc(-c2ncn(-c3ccc(C(F)(F)F)cc3)c2-c2ccc(N(C)C)cc2)cc(OC)c1OC [Compound C092, 5-(4-dimethylaminophenyl)-4-(3,4,5-trimethoxyphenyl)-1-(4-trifluoromethylphenyl)imidazole] | 215 to 217 °C
COc1ccc(-c2ncn(-c3cc(OC)c(OC)c(OC)c3)c2-c2cc(OC)c(OC)c(OC)c2)cc1OC [Compound C104, 5-(3,4,5-trimethoxyphenyl)-4-(3,4-dimethoxyphenyl)-1-(3,4,5-trimethoxyphenyl)imidazole] | 159.5 to 161 °C
COc1cc(-c2ncn(-c3cc(OC)c(OC)c(OC)c3)c2-c2cc(OC)c(OC)c(OC)c2)cc(OC)c1OC [Compound C107, 5-(3,4,5-trimethoxyphenyl)-4-(3,4,5-trimethoxyphenyl)-1-(3,4,5-trimethoxyphenyl)imidazole] | 168.8 to 170.9 °C
COc1cc(OC)cc(-c2ncoc2-c2ccc(NC(C)=O)cc2)c1 [Compound C109, 5-(4-acetamidophenyl)-4-(3,5-dimethoxyphenyl)oxazole] | 140.1 to 143.2 °C
COc1cc(OC)cc(-c2ncoc2-c2ccc(N)cc2)c1 [Compound C112, 4-(3,5-dimethoxyphenyl)-5-(4-aminophenyl)oxazole] | 142 to 146 °C
COc1cc(OC)cc(-c2ncoc2-c2ccc(N(C)C)c(N)c2)c1 [Compound C113, 4-(3,5-dimethoxyphenyl)-5-(3-amino-4-dimethylaminophenyl)oxazole] | 111.7 to 113.5 °C
COc1cc(OC)cc(-c2ncoc2-c2cc(N)c(OC)cc2N)c1 [Compound C119, 4-(3,5-dimethoxyphenyl)-5-(2,5-diamino-4-methoxyphenyl)oxazole] | 149.9 to 151.6 °C
COc1cc(OC)cc(-c2ncoc2-c2ccc3c(c2)NCCO3)c1 [Compound C255, 4-(3,5-dimethoxyphenyl)-5-(6-benzomorpholinyl)oxazole] | 175 to 178 °C

Next, values leading:

melting point | SMILES
100.8 to 102.6 °C | COc1ccc(-c2ocnc2-c2cc(OC)c(N)c(OC)c2)cc1F [CN01, 4-(3,5-dimethoxy-4-aminophenyl)-5-(3-fluoro-4-methoxyphenyl)oxazole]
184.7 to 187 °C | COc1ccc(-c2ocnc2-c2cc(OC)c(Br)c(OC)c2)cc1O [CN02, 4-(3,5-dimethoxy-4-bromophenyl)-5-(3-hydroxy-4-methoxyphenyl)oxazole]
161.3 to 162.8 °C | COc1ccc(-c2ocnc2-c2cc(OC)c(O)c(OC)c2)cc1F [CN03, 4-(3,5-dimethoxy-4-hydroxyphenyl)-5-(3-fluoro-4-methoxyphenyl)oxazole]
179.8 to 183.9 °C | COc1ccc(-c2ocnc2-c2cc(OC)c(Br)c(OC)c2)cc1N [CN04, 4-(3,5-dimethoxy-4-bromophenyl)-5-(3-amino-4-methoxyphenyl)oxazole]
101.2 to 102 °C | COc1ccc(-c2ocnc2-c2cc(OC)c(O)c(OC)c2)cc1N [CN05, 4-(3,5-dimethoxy-4-hydroxyphenyl)-5-(3-amino-4-methoxyphenyl)oxazole]
144.3 to 145.5 °C | COc1ccc(-c2ocnc2-c2cc(OC)c(O)c(OC)c2)cc1O [CN06, 4-(3,5-dimethoxy-4-hydroxyphenyl)-5-(3-hydroxy-4-methoxyphenyl)oxazole]
186.2 to 188.4 °C | COc1ccc(-c2ocnc2-c2cc(OC)c([N+](=O)[O-])c(OC)c2)cc1O [CN07, 4-(3,5-dimethoxy-4-nitrophenyl)-5-(3-hydroxy-4-methoxyphenyl)oxazole]
126 to 129.6 °C | COc1ccc(-c2ocnc2-c2cc(OC)c(N)c(OC)c2)cc1O [CN08, 4-(3,5-dimethoxy-4-aminophenyl)-5-(3-hydroxy-4-methoxyphenyl)oxazole]
100.8 to 102.6 °C | COc1ccc(-c2[nH]cnc2-c2cc(OC)c(N)c(OC)c2)cc1F [CN10, 4-(3,5-dimethoxy-4-aminophenyl)-5-(3-fluoro-4-methoxyphenyl) imidazole]
184.7 to 187 °C | COc1ccc(-c2[nH]cnc2-c2cc(OC)c(Br)c(OC)c2)cc1O [CN11, 4-(3,5-dimethoxy-4-bromophenyl)-5-(3-hydroxy-4-methoxyphenyl) imidazole]
124.7 to 127 °C | COc1ccc(-c2[nH]cnc2-c2cc(OC)c(O)c(OC)c2)cc1F [CN12, 4-(3,5-dimethoxy-4-hydroxyphenyl)-5-(3-fluoro-4-methoxyphenyl) imidazole]
159.7 to 162 °C | COc1ccc(-c2[nH]cnc2-c2cc(OC)c(Br)c(OC)c2)cc1N [CN13, 4-(3,5-dimethoxy-4-bromophenyl)-5-(3-amino-4-methoxyphenyl)imidazole]
148.5 to 149.9 °C | COc1ccc(-c2[nH]cnc2-c2cc(OC)c(O)c(OC)c2)cc1N [CN14, 4-(3,5-dimethoxy-4-hydroxyphenyl)-5-(3-amino-4-methoxyphenyl)imidazole]
171.5 to 173 °C | COc1ccc(-c2[nH]cnc2-c2cc(OC)c(O)c(OC)c2)cc1O [CN15, 4-(3,5-dimethoxy-4-hydroxyphenyl)-5-(3-hydroxy-4-methoxyphenyl)imidazole]
147.7 to 149 °C | COc1ccc(-c2[nH]cnc2-c2cc(OC)c([N+](=O)[O-])c(OC)c2)cc1O [CN16, 4-(3,5-dimethoxy-4-nitrophenyl)-5-(3-hydroxy-4-methoxyphenyl)imidazole]
141.8 to 143.7 °C | COc1ccc(-c2[nH]cnc2-c2cc(OC)c(N)c(OC)c2)cc1O [CN17, 4-(3,5-dimethoxy-4-aminophenyl)-5-(3-hydroxy-4-methoxyphenyl) imidazole]
139.7 to 142.1 °C | COc1ccc(-c2[nH]cnc2-c2cc(OC)c(N)c(OC)c2)cc1N [CN19, 4-(3,5-dimethoxy-4-aminophenyl)-5-(3-amino-4-methoxyphenyl) imidazole]
139.7 to 142.1 °C | COc1ccc(-c2ocnc2-c2cc(OC)c(F)c(OC)c2)cc1N [CN20, 4-(3,5-dimethoxy-4-fluorophenyl)-5-(3-amino-4-methoxyphenyl)oxazole]
146.2 to 148.1 °C | COc1ccc(-c2ocnc2-c2cc(OC)c(Cl)c(OC)c2)cc1N [CN21, 4-(3,5-dimethoxy-4-chlorophenyl)-5-(3-amino-4-methoxyphenyl)oxazole]
167.9 to 170.2 °C | COc1ccc(-c2ocnc2-c2cc(OC)c(OC(F)(F)F)c(OC)c2)cc1N [CN23, 4-(3,5-dimethoxy-4-trifluoromethoxyphenyl)-5-(3-amino-4-methoxyphenyl)oxazole]
